Experimental data as given in a melting point compilation (Tetko et al.; mined from patent text by program, amines drawn as free bases though some values may be those of a salt).

SMILES	melting point
Cc1occc1C(=O)Nc1ccc(C(=O)N2Cc3ccccc3Cc3ccccc32)cc1	202 to 204 °C
CC(C(O)C=Cc1ccc(Cl)cc1)n1cncn1 (configuration not stated)	117 to 118 °C
O=C(CCl)N1CCC(Cc2ccc(Cl)cc2)CC1	70 °C
CCOC(=O)CCN1C(=O)C(NC(=O)Nc2ccc(Cl)cc2)N=C(c2ccccc2)c2ccccc21 (configuration not stated)	251 to 253 °C
CC(C)=NN(C)C1=NOCc2ccc(Cl)cc21	105 to 106 °C
CC(C)Cn1cnc2c(N)nc3ccc(-c4cccnc4)cc3c21	244 to 246 °C
COC(=O)C(=Cc1c[nH]c2cc(C)ccc12)[N+](=O)[O-]	167 to 169 °C
CCN(CC)C(=O)c1cc2ccccc2c(-c2cccc(F)c2)n1	92 °C
CCCc1c(OCCCSc2ccc(C(=O)CCC(=O)O)cc2F)ccc(C(C)=O)c1O	115 to 116 °C
CC(C)(C)OC(=O)n1ccc2c3[nH]c(CO)nc3ccc21	152 °C
COc1cc(COc2nn(-c3ccccc3)cc2/C=C/c2csc(C)n2)ccc1OCc1nc(-c2ccc(CC(=O)O)cc2)oc1C	181 to 182 °C
CC(=NNC(=O)c1ccccc1)c1ccccn1	152 °C
COc1ccc(-n2cc(C(=O)N(CC(=O)O)c3ccc(OCC(C)(C)C)c(C#N)c3)c(C)n2)cc1	98 to 101 °C
CCC[C@H]1CC[C@H]([C@H]2CC[C@H](C3=CC(=O)CCC3)CC2)CC1	96 °C
NC(=O)c1cc(CN2C(=O)C3(COc4cc5c(cc43)OCO5)c3ccccc32)oc1C(F)(F)F (configuration not stated)	172 to 174 °C
CCN(CC)CCCn1[nH]c(C)c2c(=O)nc(-c3ccncc3)nc1-2	164 to 166 °C
N#CCCNC(=O)c1cccc(-c2cccc3sc(Cc4ccc(F)c(F)c4)cc23)c1	123 to 124 °C
COC(=O)[C@H](Cc1ccc(-c2cn(C)c(=O)n(C)c2=O)cc1)NC(=O)c1c(C)cccc1Cl	155 to 157 °C
C=C1c2ccn3c(C)c(C)nc3c2N[C@H](c2ccccc2)[C@H]1O	199 to 202 °C
O=C(O)C(Cc1ccccc1)CS(=O)C1CCCCC1 (configuration not stated)	153 to 154 °C
Cc1c2c(c3ccccc3c1NC(=O)CC(C)(C)C)OCC2c1ccc(C(C)C)cc1 (configuration not stated)	183 to 184 °C
COc1cc(C(=O)c2ccccc2Cl)cc([N+](=O)[O-])c1O	129 to 131 °C
Nc1c(C(=O)c2cccc(S(N)(=O)=O)c2)[nH]c2cc(Cl)ccc12	125 to 127 °C
CSc1ncc(Oc2cccnc2)c(=O)[nH]1	205 to 208 °C
CNC(=C[N+](=O)[O-])NCCSCc1ccsn1	118 to 120 °C

SMILES	melting point
O=C(O)Cc1cccc(Sc2ccccc2Cl)c1O	91 to 93 °C
COC1(OC)C=Cc2cc(Cc3cnc(N)nc3N)cc(OCC3CC3)c2O1	204 to 206 °C
O=C(Nc1ccc(C(F)(F)F)cc1)Nc1cccc(Oc2ccccc2)c1	178 to 181 °C
CC(C)(C)OC(=O)N1CCN(C(=O)Oc2ccc(Oc3ccc(C(F)(F)F)cn3)cc2)CC1	165 to 166 °C
Cc1ccc(S(=O)(=O)OCC2Cc3cccc([N+](=O)[O-])c3O2)cc1 (configuration not stated)	129 to 131 °C
CC(C)(C)OC(=O)N[C@H]1CC[C@H](CCN2CCN(c3cccc4c3CCC4)CC2)CC1	115 to 118 °C
CS/C(NC(=O)c1ccc(SC)cc1)=C(\C#N)C(=O)Nc1ccc(C)cc1	173 to 175 °C
CCCCCCCNC(=O)Nc1ccc(NC(=O)NCCCC)cc1C(=O)NC1CCN(C(c2ccccc2)c2ccccc2)CC1	209 to 211 °C
COc1ccc(C2(c3cccc(C)n3)OCCCO2)cc1OC	124 to 126 °C
Oc1ccc2ccc(OCc3ccccn3)cc2c1	190 to 193 °C
CCOC(=O)C(C)Oc1ccc(Nc2cnc3cc(Cl)ccc3n2)cc1 (configuration not stated)	136 °C
Nc1ccc2c(=O)[nH]c(=O)n(CCCCN3CCC(OC(c4ccccc4)c4ccccc4)CC3)c2c1	162 to 164 °C
O=c1[nH]nc(-c2sc3ccccc3c2Cl)o1	218 to 220 °C
CC(=O)c1cc(CN2CCNC2=O)ccc1O	131 to 133 °C
CC[C@H]1c2ccc(C#N)n2-c2cc(F)c(F)cc2N1S(=O)(=O)c1ccc(O)c(C)c1	201 to 203 °C
C=C(c1ccc(Br)cc1)c1ccc(OCCCC)cc1	71.8 to 73 °C
CC(C)(CO)c1cc2c(cc1Cl)C=C(C(=O)O)C(C(F)(F)F)O2 (configuration not stated)	204 to 205 °C
CCc1ccc(C(O)COc2ccc(CC3SC(=O)NC3=O)cc2)nc1 (configuration not stated)	129 to 130 °C
Ic1cc(I)c(OCCC(c2ccccc2)c2ccccc2)c(I)c1	120 to 121 °C
CC(C)CN(C)c1cc2c(cc1C(F)(F)F)NC(=O)CC(c1cccc(-n3cncn3)c1)=N2	198 °C
CN(C)CC1COC2(CCN(c3nc4c(cc3F)C=C(C(=O)O)CN4c3ccc(F)cc3F)C2)O1 (configuration not stated)	154 to 155 °C
COc1cc(Nc2nc3cccc(-c4ccc(S(=O)(=O)N(C)C)cc4)c3o2)cc(OC)c1OC	230 to 233 °C
CCCN(c1ccncc1F)n1c(C)cc2ccccc21	5 °C
O=c1[nH]ncc(NCCN2CCN(c3cccc4c3OCCO4)CC2)c1Cl	217 to 219 °C
CCC(=O)c1cc(C(=O)O)c2cc(Cc3ccc(F)cc3)cnc2c1O	235 to 237 °C

SMILES	melting point
C[C@@H]([C@@H]1CCC(=O)O1)N(Cc1ccccc1)Cc1ccccc1	61 to 62 °C
CCCCCCCC(=O)N(C)Cc1cccc(-c2ccc(C=CC(=O)O)c(F)c2)c1	91 °C
COc1ccc(-c2[nH]cnc2-c2cc(OC)c(Br)c(OC)c2)cc1O	185 to 187 °C
CNC(=O)c1ccc2c(c1C)OC(c1ccccc1)(c1ccccc1)O2	178 to 180 °C
COc1ccc(C(=O)Cc2ccnc(NC(=O)c3ccccc3)c2)cc1	136 to 139 °C
N#Cc1ccc(C(=O)c2ccc(O)c(F)c2)cc1	168 to 170 °C
CS(=O)(=O)Nc1c([N+](=O)[O-])cnn1-c1c(F)c(F)c(C(F)(F)F)c(F)c1F	163 to 168 °C
Nc1ccc(S(=O)(=O)C(F)(F)F)c2sc3ccccc3c12	108 °C
CC(NC(=O)C(C)(Cc1c[nH]c2ccccc12)NCc1cc2ccccc2o1)c1ccn(C)c1 (configuration not stated)	53 to 57 °C
COC(=O)c1csc(-c2ccc(OC)cc2)n1	67 to 79 °C
COc1cc(Cl)c(NS(C)(=O)=O)cc1C(=O)NCC1CCCO1 (configuration not stated)	159 to 160 °C
CC12CCC(O)CC1CCC1C2CCC2(C)C(c3ccnnc3)CCC12O (configuration not stated)	210 to 213 °C
Oc1ccc(C(=S)N2CCOCC2)cc1	205 °C
COc1ccc(NC(=O)c2nc3c(s2)C(=O)C=C(NCCCN(C)CCCNC2=CC(=O)c4sc(C)nc4C2=O)C3=O)cc1	141 to 142 °C
O=[N+]([O-])c1cc(Cl)c(Cl)cc1NCCCO	97 °C
CC(c1oc2ccccc2c(=O)c1-c1cccc(F)c1)n1nc(-c2ccc(N(C)C)cc2)c2c(N)ncnc21 (configuration not stated)	214 to 217 °C
CSc1ccc(C(=O)NCc2ccc3c(c2)C(=O)N(C2CCC(=O)NC2=O)C3=O)nc1 (configuration not stated)	185 to 187 °C
CCOC(=O)c1c(C(F)(F)C(F)(F)F)[nH]c(C(F)(F)C(F)(F)F)c1C(=O)OCC	64.5 to 65.5 °C
O=S(c1ccccc1)c1ncc(Cl)cc1F (configuration not stated)	77 to 78 °C
N#Cc1c(N2CCN(C(=O)c3c[nH]cn3)CC2)c2ccccc2n(Cc2ccc(F)cc2)c1=O	176 to 183 °C
CCN1c2cscc2CNc2ccccc21	85 to 87 °C
OCC1(CO)Nc2cccc3cccc(c23)N1	158 °C
CCOC(=O)C1=C(C)NC(CSCO)=C(C(=O)OCC)C1c1cccc([N+](=O)[O-])c1 (configuration not stated)	113 to 114 °C
COc1cc(OC)c(/C=C/S(=O)(=O)Cc2cnc(OC)c([N+](=O)[O-])c2)c(OC)c1	183 to 186 °C
CC(NC(=O)C1=C(C(=O)Nc2cc(OC3CCCCC3)c(Cl)cc2F)CCCC1)c1ccccc1 (configuration not stated)	156 to 159 °C

SMILES	melting point
O=c1cc(-c2ccncc2)nc2n1CCC(c1ccncc1)N2 (configuration not stated)	268 to 270 °C
CS(=O)(=O)c1ccc(-c2cc(CCO)sc2-c2ccc(F)cc2)cc1	102 to 108 °C
COc1cccc(N(CCN2CCC(C(=O)c3ccc(F)cc3)CC2)C(=O)c2cccc([N+](=O)[O-])c2)c1	123 to 125 °C
CC(=O)OCC1Cn2cc(C(=O)NCc3ccc(Cl)cc3)c(=O)c3cc(CN4CCOCC4)cc(c32)O1 (configuration not stated)	215 to 218 °C
COc1c(C)c(C)c(OC)c(CCCCO)c1C	85.1 to 87.1 °C
CON=C(C1=NCCO1)c1ccccc1Oc1ccc(C(F)(F)F)cn1	97 to 100 °C
COc1c(C)cnc(CSc2nc3cc(C(F)(F)F)ccc3[nH]2)c1C	163 °C
COCCN(C1CC(C)(C)Oc2ccc(OCc3ccccc3)cc21)S(C)(=O)=O (configuration not stated)	66 to 68 °C
O=c1[nH]nc(-c2ccc(NN=C(c3ccc(O)cc3O)c3ccc(O)cc3O)cc2)c2ccccc12	140 to 146 °C
CC1CC(C)CN(c2nccc(Oc3ccc(NC(=O)c4cc(F)cc(N5CCOCC5)c4)c4ccccc34)n2)C1 (configuration not stated)	102 to 104 °C
CCN1C(C)=CC(=O)CS1(=O)=O	90 to 92 °C
N#Cc1ccc(Sc2cc(Cl)ccc2Cl)c(S(=O)(=O)N2CCNCC2)c1	156 to 162 °C
Cc1cc(CCCCCCCOc2ccc(C(=O)NN)cc2)on1	121 to 122 °C
COC(=O)c1ccccc1-c1cc(-c2ccc(Cl)cc2)no1	89.5 to 91 °C
Oc1nc2cc(Cl)c3nccnc3c2nc1O	> 300 °C
CS(=O)(=O)c1ccc(-c2cc(/C=C/CO)nn2C2CCCCC2)cc1	121 °C
c1ccc(CC(=Nn2cncn2)c2ccccc2)cc1	78 to 80 °C
CCNC(=O)c1c(Br)ccc(OC)c1[Si](C)(C)C	200 °C
O=C(O)C1CCc2c(oc3cccc(Cl)c23)C1 (configuration not stated)	189 to 190 °C
Brc1cccc2[nH]cc(Sc3ccccc3)c12	137 to 139 °C
C=CCNc1c([N+](=O)[O-])ccc(Oc2ccc(C#N)cc2)c1Cl	85 to 87 °C
S=C(NCCC1CC(c2ccccc2)=NO1)N1CCOCC1 (configuration not stated)	128 to 130 °C
